According to article PMC8555409 (Journal of medicinal chemistry, 2021):
Non-standard residues stand in square brackets, D forms with d. Residues, ends and D or L forms follow the SMILES beside them. *: point of attachment. Cyclohexanoyl(1S,3S-3-NH2) = N[C@H]1CCC[C@H](C(=O)*)C1; Trp(5-OH) = N[C@@H](Cc1c[nH]c2ccc(O)cc12)C(=O)O; NH(4-morpholinophenyl) = c1cc(N2CCOCC2)ccc1N*; Bip = N[C@@H](Cc1ccc(-c2ccccc2)cc1)C(=O)O; hArg = N=C(N)NCCCC[C@H](N)C(=O)O

Tests used:
EphA4 = conditions: cited from earlier work
[1] = tested on: motor neurons co-cultured with iAstrocytes derived from sALS patients; type: cell-based, mouse; conditions: 100 μM, 3 days co-culture
[2] = tested on: SOD1(G93A) transgenic mice; conditions: daily in vivo administration; cited from earlier work
EphA4-LBD = EphA4-LBD (Homo sapiens, UniProt P54764, C204A); experiment: 2D [13C,1H] NMR chemical shift perturbations with 13Cε-Met labeled EphA4-LBD
Sequence of EphA4-LBD (P54764 29-209 C204A): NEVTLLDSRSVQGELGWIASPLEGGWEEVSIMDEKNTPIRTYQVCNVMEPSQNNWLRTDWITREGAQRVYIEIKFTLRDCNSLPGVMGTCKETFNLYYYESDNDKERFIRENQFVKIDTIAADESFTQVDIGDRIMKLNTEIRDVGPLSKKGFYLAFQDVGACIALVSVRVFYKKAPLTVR

Structure (SMILES) | agonistic activity for EphA4 in primary cortical neurons (EphA4) | protection of motor neurons from sALS iAstrocytes (motor neuron survival) [1] | survival [2] | Kd (EphA4-LBD) [nM]
COc1ccc2[nH]cc(CCNC(=O)[C@H](Cc3ccncc3)NC(=O)[C@H](Cc3ccc(Cl)cc3)NC(=O)[C@H](Cc3c[nH]c4ccc(O)cc34)NC(=O)CCCN)c2c1 [123C4] | induced receptor phosphorylation and growth cone collapse | able to protect mouse motor neurons | significantly prolonged survival | –
N=C(N)NCCCC[C@H](NC(=O)[C@H](Cc1ccc(-c2ccccc2)cc1)NC(=O)[C@H](Cc1c[nH]c2ccc(O)cc12)NC(=O)[C@H]1CCC[C@H](N)C1)C(=O)NCC(=O)Nc1ccc(N2CCOCC2)cc1 [compound 33] ({Cyclohexanoyl(1S,3S-3-NH2)}-[Trp(5-OH)][Bip][hArg]G-{NH(4-morpholinophenyl)}) | – | – | – | < 60
